{
  "source": "patent US20040253292A1",
  "about": "“MR-signal emitting coatings” (Wisconsin Alumni Research Foundation, priority 2003, published 2004)",
  "assay": "Diffusion of a fluorescent probe in swollen gelatin gel (FRAP)",
  "assay_type": "physicochemical",
  "conditions": "coating thickness 60 μm; diffusion coefficient 9×10^ m^2s^−1",
  "excerpt": "To assess the stability of DTPA[Gd(III)] in the gelatin coating, the diffusion of a fluorescence probe in gelatin was studied by the technique of fluorescence recovery after photobleaching (FRAP). The instrument and data analysis scheme are described in Kim, S. H. and Yu, H., J. Phys. Chem. 1992, 96, 4034, which is hereby fully incorporated by reference. Fluorescein was used as the fluorescence probe due, in part, to its molecular size being roughly the same as that of DTPA[Gd(III)].\nThe focus of the study was to examine the possible retardation effects of gelatin concentration and cross-link density on the diffusion, which was determined at room temperature, i.e., below the gel point of gelatin. The diffusion of fluorescein probe slows down with the increase of gelatin concentration. The diffusion coefficient decreases from 1.5×10^−10 to 9×10^−12 m^2s^−1 when the concentration of gelatin increases from 9% to 40%. […] Accordingly, the probe diffusion is more likely controlled by the concentration of gelatin rather than the cross-link density. On the other hand, the cross-link density may determine the swelling ratio of gelatin, i.e., the concentration of gelatin in aqueous solution. […]",
  "data": [
    {"molecule": "O=C(O)CN(CCN(CC(=O)O)CC(=O)O)CCN(CC(=O)O)CC(=O)O", "note": "[DTPA, diethylenetriaminepentaacetic acid]", "values": [
      {"measurement": "time to diffuse out of the gelatin coating", "result": "about 67 seconds"}
    ]}
  ]
}
